Here are results for 2 molecules from paper PMC3685270 (Clinical pharmacology and therapeutics, 2011).

≈ marks a conversion by molar mass, not a printed value. Entries after “also recorded” stand apart in the source; their conditions may differ. Read-outs that look alike come from different tables or passages of the source.

In data set [1] the test system is Pgp at the human BBB. Briefly: [^11C]-N-desmethyl-loperamide PET after tariquidar in healthy human subjects. The class given is in vivo. The note with it: humans, without tariquidar.
A short description of data set [2]: Safety monitoring / adverse events after tariquidar infusion. The class given is in vivo, human. The note with it: for Tolerability: healthy subjects, 3, 4, 6 and 8 mg/kg i.v. infusion.
Data set [3] relates to Pgp at the human BBB. The note with it: 2 mg/kg dose; cited from earlier work.
The conditions of data set [4]: rats, bolus administration of 30 mg/kg; cited from earlier work.
Data set [5] has as its target T1, P-glycoprotein (Pgp) at the blood-brain barrier (Homo sapiens, UniProt P08183). It counts as in vivo. Conditions: for EC50: tariquidar plasma concentration at end of PET scan.
The test system of data set [6] is P-glycoprotein (Pgp) at the blood-brain barrier. Conditions: cited from earlier work.
For data set [7] the following is noted: humans; cited from earlier work.
The conditions of data set [8]: previous studies (human and rat); cited from earlier work.
The format of data set [9] is in vivo, human. The note with it: humans, maximum administered dose 8 mg/kg.
Data set [10] deals with breast cancer resistance protein (BCRP, ABCG2). Conditions: cited from earlier work.
The next data set can be described thus: Unmetabolized. It counts as in vivo, human. Conditions: AUC 0-40 min, different tariquidar doses vs 0 mg/kg.
Data set [11] concerns the target T1, P-glycoprotein (Pgp) at the blood-brain barrier. The note with it: (R)-[^11C]verapamil whole brain, tariquidar 2 mg/kg, n=5, cited from earlier work.
Data set [12] deals with Pgp in CD56-positive lymphocytes. Conditions: single i.v. dose of 2 mg/kg, over 24 h; cited from earlier work.
Where [13] appears, read: rat, tariquidar plasma concentration at end of PET scan, 0-60 min.

T1 sequence (P08183 whole entry): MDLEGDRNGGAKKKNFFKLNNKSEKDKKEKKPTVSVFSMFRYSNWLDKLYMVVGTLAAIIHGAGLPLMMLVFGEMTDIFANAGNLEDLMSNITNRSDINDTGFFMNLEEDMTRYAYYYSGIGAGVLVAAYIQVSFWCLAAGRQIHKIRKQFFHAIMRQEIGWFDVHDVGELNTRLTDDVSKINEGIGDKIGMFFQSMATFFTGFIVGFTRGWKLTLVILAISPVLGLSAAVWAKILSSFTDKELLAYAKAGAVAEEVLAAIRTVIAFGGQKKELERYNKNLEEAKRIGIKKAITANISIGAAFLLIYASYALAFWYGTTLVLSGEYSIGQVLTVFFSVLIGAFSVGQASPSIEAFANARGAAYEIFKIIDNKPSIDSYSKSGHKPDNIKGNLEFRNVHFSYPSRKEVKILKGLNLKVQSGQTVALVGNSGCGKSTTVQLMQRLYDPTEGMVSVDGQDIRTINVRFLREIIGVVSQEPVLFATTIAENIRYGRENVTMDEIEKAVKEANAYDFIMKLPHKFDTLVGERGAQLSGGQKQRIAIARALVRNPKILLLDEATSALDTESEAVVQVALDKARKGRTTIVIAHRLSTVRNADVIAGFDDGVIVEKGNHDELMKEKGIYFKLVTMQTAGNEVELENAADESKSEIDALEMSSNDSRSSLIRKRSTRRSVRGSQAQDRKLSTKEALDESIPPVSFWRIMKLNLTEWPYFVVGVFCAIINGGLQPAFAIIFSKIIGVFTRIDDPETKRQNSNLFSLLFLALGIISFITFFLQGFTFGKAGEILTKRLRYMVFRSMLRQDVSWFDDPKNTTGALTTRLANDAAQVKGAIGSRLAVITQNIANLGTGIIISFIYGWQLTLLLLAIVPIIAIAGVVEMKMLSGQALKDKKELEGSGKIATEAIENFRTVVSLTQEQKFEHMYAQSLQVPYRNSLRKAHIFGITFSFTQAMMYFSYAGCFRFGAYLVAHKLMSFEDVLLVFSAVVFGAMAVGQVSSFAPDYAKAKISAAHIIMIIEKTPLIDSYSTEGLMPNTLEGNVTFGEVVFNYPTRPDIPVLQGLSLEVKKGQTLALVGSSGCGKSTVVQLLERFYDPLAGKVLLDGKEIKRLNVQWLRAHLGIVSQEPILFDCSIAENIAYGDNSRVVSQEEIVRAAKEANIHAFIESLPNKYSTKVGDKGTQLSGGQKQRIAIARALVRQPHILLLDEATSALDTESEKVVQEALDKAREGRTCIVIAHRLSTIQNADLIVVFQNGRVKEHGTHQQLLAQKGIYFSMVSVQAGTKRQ

With `CNC(=O)C(CCN1CCC(O)(c2ccc(Cl)cc2)CC1)(c1ccccc1)c1ccccc1` [[^11C]-N-desmethyl-loperamide], the “Baseline brain uptake lower as compared to (R)-[^11C]verapamil” value with Pgp at the human BBB [1] came out at 2 fold.
With `COc1cc2c(cc1OC)CN(CCc1ccc(NC(=O)c3cc(OC)c(OC)cc3NC(=O)c3cnc4ccccc4c3)cc1)CC2` [tariquidar], the Hypotension adverse event result in data set [2] (8 mg/kg group, infusion stopped 20 min prematurely (7.2 mg/kg administered)) is given as “one case of moderate hypotension”. Further, in [2], the Tolerability result is reported as “well tolerated at doses 4-times the clinically tried”. Further, in data set [2] (listed as Tariquidar), the Tolerability result is given as “generally well tolerated”. Further, the “Dysgeusia (relationship with study drug could not be excluded)” value in [2] (healthy subjects, 3-8 mg/kg) is recorded as 6 out of 20. Moreover, in [2] (healthy subjects, 3-8 mg/kg, 20 subjects), the “Vertigo (relationship with study drug could not be excluded)” value worked out at 3 subjects. For the same molecule, in the data set on Pgp at the human BBB [3], the “Increase in brain penetration of [^11C]-N-desmethyl-loperamide” value is 25%. Further, in data set [4], the “Tariquidar plasma concentration at the time of the PET scan” value is “up to 7,000 ng/mL”. A half-maximal response in data set [5] (EC50, K1–K1 baseline (1T2K), human, 0-10 min) (EC50) required 806 nM. Further, in data set [5] (EC50, K1–K1 baseline (2T4K), human, 0-40 min), the midpoint of the response, the EC50, lay at 813 nM. Also, the EC50 (in general, the concentration that produces a half-maximal response) in [5] (EC50, VT–VT baseline (2T4K), human, 0-40 min) was 867 nM. In [5] (human, 0-10 min), the “n (Hill coefficient), K1–K1 baseline (1T2K)” value was found to be 6.2±3.5. Besides, in [5] (human, 0-40 min), the “n (Hill coefficient), K1–K1 baseline (2T4K)” value came out at 6.3±3.5 and the “n (Hill coefficient), VT–VT baseline (2T4K)” value came to 11.3±5.4. For the same molecule, the “Tariquidar plasma concentration at which brain VT approached plateau levels” value in data set [5] (humans) is reported as > 1,000 ng/mL. Moreover, in data set [6] (setting [13]), the “EC50, K1–K1 baseline (2T4K)” value was 441 ± 81 ng/mL (≈ 0.682 µM) and the “EC50, VT–VT baseline (2T4K)” value was 544 ± 32 ng/mL (≈ 0.841 µM). In addition, in data set [6] (rats), the “Tariquidar plasma concentration at which brain VT approached plateau levels” value is listed as > 1,000 ng/mL. Moreover, the “Terminal elimination half-life from plasma” value in data set [7] was 13 to 23 h. For the same molecule, the “Effect of tariquidar on degree of plasma protein binding of (R)-[^11C]verapamil” value in data set [8] is recorded as “does not influence”. The “Tariquidar plasma concentration at time of PET” value in data set [9] is on record as “up to 1,312 ng/mL”. For the same molecule, the “Inhibition of BCRP” value in [10] was “inhibits”. Moreover, the “Effect on concentration of unmetabolized (R)-[^11C]verapamil in plasma” value in the data set “Unmetabolized” was “lacked pharmacokinetic interactions; also recorded: did not affect”. Besides, in data set [11] (0-10 min), the “K1 (1T2K)” value is recorded as 0.051±0.006 (6) mL·mL^−1·min^−1. Further, in data set [11] (0-40 min), the “K1 (2T4K)” value was 0.051±0.008 (11) mL·mL^−1·min^−1, the “VT (2T4K)” value was 0.788±0.087 (2) mL·mL^−1, the “k2 (2T4K)” value was 0.123±0.052 (57) min^−1 and the “k3 (2T4K)” value is given as 0.156±0.080 (123) min^−1. For the same molecule, the “k4 (2T4K)” value in data set [11] (0-40 min) was 0.191±0.063 (42) min^−1. The “Block of Pgp in CD56-positive lymphocytes” value in [12] was 100%.
